According to publication PMC7026418, “The kinase polypharmacology landscape of clinical PARP inhibitors” (Scientific Reports, 2020):
Read-outs that look alike come from different tables or passages of the source.

Key:
Experiment in all cases: biochemical
Design in all cases: DiscoveRx KINOMEscan active site-directed competition binding; percent of control kinase bound to immobilised ligand
AMPK-alpha2 = target: T1, AMPK-alpha2 (Homo sapiens, UniProt P54646)
T1 construct: gene PRKAA2

MKK7 = target: T2, MKK7 (Homo sapiens, UniProt O14733)
T2 construct: gene MAP2K7
T2 sequence (O14733 1-419): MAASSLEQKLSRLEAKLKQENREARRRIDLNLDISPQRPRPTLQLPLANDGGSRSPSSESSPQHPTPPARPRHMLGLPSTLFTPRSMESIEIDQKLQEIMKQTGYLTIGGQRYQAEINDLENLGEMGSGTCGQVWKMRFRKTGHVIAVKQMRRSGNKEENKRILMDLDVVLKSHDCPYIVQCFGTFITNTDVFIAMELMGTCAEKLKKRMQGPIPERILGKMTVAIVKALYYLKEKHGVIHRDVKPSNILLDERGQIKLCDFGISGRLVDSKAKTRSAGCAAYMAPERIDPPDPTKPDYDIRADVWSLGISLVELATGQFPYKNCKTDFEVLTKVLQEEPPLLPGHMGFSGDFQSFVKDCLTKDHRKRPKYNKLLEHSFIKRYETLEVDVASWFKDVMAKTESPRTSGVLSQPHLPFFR

MAP3K2 = target: T3, MAP3K2 (Homo sapiens, UniProt Q9Y2U5)
T3 sequence (Q9Y2U5 1-619): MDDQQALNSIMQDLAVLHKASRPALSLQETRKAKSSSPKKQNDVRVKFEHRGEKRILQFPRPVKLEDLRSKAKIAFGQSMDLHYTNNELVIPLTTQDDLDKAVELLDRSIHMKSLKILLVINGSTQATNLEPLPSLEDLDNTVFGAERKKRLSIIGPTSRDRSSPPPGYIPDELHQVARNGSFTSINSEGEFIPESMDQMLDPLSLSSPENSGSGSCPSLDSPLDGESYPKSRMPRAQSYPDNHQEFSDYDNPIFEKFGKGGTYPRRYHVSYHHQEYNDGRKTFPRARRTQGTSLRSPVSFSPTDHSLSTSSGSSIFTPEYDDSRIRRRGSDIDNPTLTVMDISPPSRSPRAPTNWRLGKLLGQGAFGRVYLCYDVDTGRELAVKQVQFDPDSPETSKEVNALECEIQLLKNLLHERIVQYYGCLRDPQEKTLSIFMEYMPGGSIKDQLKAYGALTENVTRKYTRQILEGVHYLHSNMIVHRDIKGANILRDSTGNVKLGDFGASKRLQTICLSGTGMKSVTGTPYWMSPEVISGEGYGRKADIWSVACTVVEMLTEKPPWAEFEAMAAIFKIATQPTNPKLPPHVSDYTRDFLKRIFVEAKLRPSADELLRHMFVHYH

MEK5 = target: T4, MEK5 (Homo sapiens, UniProt Q13163)
T4 construct: gene MAP2K5
T4 sequence (Q13163 1-448): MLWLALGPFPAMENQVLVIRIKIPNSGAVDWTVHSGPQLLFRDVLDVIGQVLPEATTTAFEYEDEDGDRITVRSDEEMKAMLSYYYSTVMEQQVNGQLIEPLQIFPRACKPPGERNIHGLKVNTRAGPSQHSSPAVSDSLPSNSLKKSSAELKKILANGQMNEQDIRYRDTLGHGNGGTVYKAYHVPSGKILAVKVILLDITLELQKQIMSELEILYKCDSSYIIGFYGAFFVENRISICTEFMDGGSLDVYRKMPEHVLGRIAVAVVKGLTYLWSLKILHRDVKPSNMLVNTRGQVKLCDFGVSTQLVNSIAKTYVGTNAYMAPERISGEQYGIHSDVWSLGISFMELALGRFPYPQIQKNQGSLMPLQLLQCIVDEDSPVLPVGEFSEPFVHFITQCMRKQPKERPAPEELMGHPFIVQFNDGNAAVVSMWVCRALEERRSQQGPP

TRKC = target: T5, TRKC (Homo sapiens, UniProt Q16288)
T5 construct: gene NTRK3

RIOK1 = target: T6, RIOK1 (Homo sapiens, UniProt Q9BRS2)
T6 sequence (Q9BRS2 1-568): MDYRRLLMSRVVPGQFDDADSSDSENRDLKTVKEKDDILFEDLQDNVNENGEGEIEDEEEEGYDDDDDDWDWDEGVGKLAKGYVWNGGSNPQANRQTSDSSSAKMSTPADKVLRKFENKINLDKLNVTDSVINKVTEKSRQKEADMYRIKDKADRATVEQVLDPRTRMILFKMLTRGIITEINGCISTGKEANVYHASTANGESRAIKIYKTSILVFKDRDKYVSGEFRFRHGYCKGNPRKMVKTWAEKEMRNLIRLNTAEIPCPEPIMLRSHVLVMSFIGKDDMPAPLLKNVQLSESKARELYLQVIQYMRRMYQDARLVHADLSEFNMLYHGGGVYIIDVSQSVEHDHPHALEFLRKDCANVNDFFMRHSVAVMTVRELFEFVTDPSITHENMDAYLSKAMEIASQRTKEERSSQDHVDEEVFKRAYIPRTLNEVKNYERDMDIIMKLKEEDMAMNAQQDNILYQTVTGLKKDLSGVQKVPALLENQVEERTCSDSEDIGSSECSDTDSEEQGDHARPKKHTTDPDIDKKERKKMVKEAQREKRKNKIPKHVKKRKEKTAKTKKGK

[1] = read-out: Niraparib (MK-4827) / %Ctrl @ 10000nM
[2] = read-out: Olaparib / %Ctrl @ 10000nM
[3] = read-out: Rucaparib / %Ctrl @ 10000nM, binding competition, % of control
[4] = read-out: Talazoparib (BMN 673) / %Ctrl @ 10000nM

T5 sequence (Q16288 whole entry): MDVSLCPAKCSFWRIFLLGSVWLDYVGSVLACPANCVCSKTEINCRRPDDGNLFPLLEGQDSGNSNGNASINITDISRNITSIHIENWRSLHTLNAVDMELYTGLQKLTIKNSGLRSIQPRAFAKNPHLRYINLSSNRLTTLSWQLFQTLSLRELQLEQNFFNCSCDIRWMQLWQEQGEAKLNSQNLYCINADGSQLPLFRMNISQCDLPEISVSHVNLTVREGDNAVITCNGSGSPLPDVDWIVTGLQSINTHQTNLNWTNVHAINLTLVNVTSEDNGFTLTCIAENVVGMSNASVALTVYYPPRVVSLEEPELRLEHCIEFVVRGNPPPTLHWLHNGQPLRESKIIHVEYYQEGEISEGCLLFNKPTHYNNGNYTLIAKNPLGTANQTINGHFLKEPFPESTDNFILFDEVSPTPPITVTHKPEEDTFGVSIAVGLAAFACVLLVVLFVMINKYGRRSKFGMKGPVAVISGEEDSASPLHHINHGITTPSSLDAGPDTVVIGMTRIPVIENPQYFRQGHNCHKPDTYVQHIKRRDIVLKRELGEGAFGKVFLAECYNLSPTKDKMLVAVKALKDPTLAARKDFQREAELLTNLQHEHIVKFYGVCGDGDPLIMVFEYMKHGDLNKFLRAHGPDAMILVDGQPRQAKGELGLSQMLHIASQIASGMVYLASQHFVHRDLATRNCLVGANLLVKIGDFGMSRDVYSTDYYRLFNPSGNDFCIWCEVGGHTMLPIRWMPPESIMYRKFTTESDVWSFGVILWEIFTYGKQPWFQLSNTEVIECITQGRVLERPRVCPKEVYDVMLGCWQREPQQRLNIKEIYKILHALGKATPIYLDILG
T1 sequence (P54646 whole entry): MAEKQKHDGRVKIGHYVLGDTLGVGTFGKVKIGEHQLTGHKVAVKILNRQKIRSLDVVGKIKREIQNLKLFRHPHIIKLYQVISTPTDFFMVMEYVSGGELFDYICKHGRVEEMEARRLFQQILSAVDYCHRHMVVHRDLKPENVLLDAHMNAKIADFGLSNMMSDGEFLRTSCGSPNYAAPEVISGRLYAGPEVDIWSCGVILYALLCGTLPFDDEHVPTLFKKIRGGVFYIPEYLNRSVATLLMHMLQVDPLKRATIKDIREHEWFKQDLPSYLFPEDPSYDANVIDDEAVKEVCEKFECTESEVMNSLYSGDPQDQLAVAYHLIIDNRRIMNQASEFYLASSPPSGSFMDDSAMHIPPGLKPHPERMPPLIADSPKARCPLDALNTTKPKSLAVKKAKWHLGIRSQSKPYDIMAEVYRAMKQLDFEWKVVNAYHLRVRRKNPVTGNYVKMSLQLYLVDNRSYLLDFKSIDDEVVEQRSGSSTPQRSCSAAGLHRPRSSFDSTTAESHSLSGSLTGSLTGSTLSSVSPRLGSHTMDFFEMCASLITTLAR

For `NC(=O)c1cccc2cn(-c3ccc([C@@H]4CCCNC4)cc3)nc12` [Niraparib], which percent of control binding at 10 µM (AMPK-alpha2; [1]) is on record?
Its percent of control binding at 10 µM is 89%.

And the percent of control binding at 10 µM (MKK7; [1])?
Its percent of control binding at 10 µM is 100%.

And the percent of control binding at 10 µM (MAP3K2; [1])?
The percent of control binding at 10 µM was 97%.

And the percent of control binding at 10 µM (MEK5; [1])?
The percent of control binding at 10 µM was 66%.

And the percent of control binding at 10 µM (TRKC; [1])?
Its percent of control binding at 10 µM is 95%.

What about the percent of control binding at 10 µM (RIOK1; [1]) of the same molecule?
Its percent of control binding at 10 µM is 95%.

What does the source list for `O=C(c1cc(Cc2n[nH]c(=O)c3ccccc23)ccc1F)N1CCN(C(=O)C2CC2)CC1` [Olaparib]?
percent of control binding at 10 µM (AMPK-alpha2; [2]): 93%; percent of control binding at 10 µM (MKK7; [2]): 98%; percent of control binding at 10 µM (MAP3K2; [2]): 92%; percent of control binding at 10 µM (MEK5; [2]): 77%; percent of control binding at 10 µM (TRKC; [2]): 92%; percent of control binding at 10 µM (RIOK1; [2]): 100%

For `CNCc1ccc(-c2[nH]c3cc(F)cc4c3c2CCNC4=O)cc1` [Rucaparib], which percent of control binding at 10 µM (AMPK-alpha2; [3]) is on record?
The percent of control binding at 10 µM was 87%.

And the percent of control binding at 10 µM (MKK7; [3])?
The percent of control binding at 10 µM was 100%.

What about the percent of control binding at 10 µM (MAP3K2; [3]) of the same molecule?
Its percent of control binding at 10 µM is 82%.

And the percent of control binding at 10 µM (MEK5; [3])?
The percent of control binding at 10 µM was 70%.

And the percent of control binding at 10 µM (TRKC; [3])?
The percent of control binding at 10 µM was 88%.

What about the percent of control binding at 10 µM (RIOK1; [3]) of the same molecule?
Its percent of control binding at 10 µM is 100%.

Which percent of control binding at 10 µM (AMPK-alpha2; [4]) does the source give for `Cn1ncnc1[C@H]1c2n[nH]c(=O)c3cc(F)cc(c23)N[C@@H]1c1ccc(F)cc1` [Talazoparib] here?
The percent of control binding at 10 µM was 94%.

And the percent of control binding at 10 µM (MKK7; [4])?
The percent of control binding at 10 µM was 100%.

What about the percent of control binding at 10 µM (MAP3K2; [4]) of the same molecule?
The percent of control binding at 10 µM was 98%.

And the percent of control binding at 10 µM (MEK5; [4])?
The percent of control binding at 10 µM was 51%.

And the percent of control binding at 10 µM (TRKC; [4])?
Its percent of control binding at 10 µM is 100%.

What about the percent of control binding at 10 µM (RIOK1; [4]) of the same molecule?
The percent of control binding at 10 µM was 100%.
